Laboratory results from patent US10294212B2 (CURADEV PHARMA PRIVATE LTD., priority 2013, dated 2019).

Tests used:
IDO1 in HeLa cells = IDO1 in HeLa cells (Homo sapiens (Human), UniProt P14902); assay: HeLa cell based IDO1 assay (IFNγ-induced, KYN in supernatant)
Procedure: HeLa cells were obtained from ATCC and maintained in DMEM supplemented with sodium bicarbonate (2.1 g/L), HEPES (4.1 g/L), L-glutamine (2 mM), non-essential amino acid (84 mg/L) and fetal bovine serum (10% FBS) and maintained at 95% humidity and 5% CO2 in a 37° C. incubator. Unless otherwise stated, all materials were procured from Sigma. Upon incubation with gamma-interferon (IFNγ ), HeLa cells express IDO1, which catalyzes the formation of N-formyl kynurenine from tryptophan present in growth medium. The assay was performed as follows:
Cells were plated in medium (300 μL) at a density of 0.1 million per well of a 48 well plate and hIDO1 was induced by overnight treatment with IFNγ (50 ng/mL) (Peprotech, USA). The following day, cells were washed to remove IFNγ and were incubated with specific concentrations of test compounds (typically 10 μM to 1 nM, final volume 300 μL) in Hanks Balanced Salt Solution (HBSS) containing 80 μM L-tryptophan. Following incubation, supernatant (150 μL) was transferred to a 96 well plate into which 30%TCA (304) was added and the contents further incubated at 65° C. for 15 min to fully convert N-formylkynurenine to kynurenine. The reaction mixture was then centrifuged to remove sediments and the KYN in the supernatant was estimated by UV-visible absorption spectroscopy at 360 nm using a Waters HPLC system fitted with a C-18 column. (Xiangdong Liu et al. Blood 2010, Vol-117, 3520-30; Sono described above).
Percent inhibition at each concentration of test compounds was determined by estimating the decrease in KYN with reference to the reaction control with 1% DMSO vehicle. Data were analyzed using nonlinear regression to generate IC50 values using Graph Pad Prism® 5.

[1] = target: Human indoleamine 2,3-dioxygenase1 (hIDO1) (Homo sapiens (Human), UniProt P14902); assay: In-vitro IDO1 enzyme assay (conversion of L-tryptophan to KYN); format: biochemical; details: read-out: IC50 (IDO1) Enz
Sequence of Human indoleamine 2,3-dioxygenase1 (hIDO1) (P14902 whole entry): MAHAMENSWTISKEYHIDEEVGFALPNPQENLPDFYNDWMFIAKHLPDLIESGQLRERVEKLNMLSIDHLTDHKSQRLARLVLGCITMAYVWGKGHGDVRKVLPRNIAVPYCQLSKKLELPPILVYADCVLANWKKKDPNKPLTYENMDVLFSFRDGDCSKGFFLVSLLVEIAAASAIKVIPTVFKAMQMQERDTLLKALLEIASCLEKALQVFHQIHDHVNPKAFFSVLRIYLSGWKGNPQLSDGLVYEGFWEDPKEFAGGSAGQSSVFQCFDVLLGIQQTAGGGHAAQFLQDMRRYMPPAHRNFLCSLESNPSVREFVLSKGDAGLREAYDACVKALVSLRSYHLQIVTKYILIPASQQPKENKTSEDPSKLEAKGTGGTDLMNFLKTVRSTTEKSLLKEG
Outline: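 Kynurenine formation quantified by HPLC absorbance at 360 nm or LC/MS/MS after TCA quench and 15 min at 65 °C. Reaction: 10 nM N-His hIDO1, 30 μM tryptophan, ascorbate/methylene blue/catalase, pH 6.5 phosphate buffer, 37 °C for 30 min. Inhibition relative to 1% DMSO vehicle, fitted to IC50.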

[2] = target: Human TDO (hTDO)-transfected CHO-K1 cells (Homo sapiens (Human), UniProt P48775); assay: CHO-K1 cell based TDO assay; details: hTDO cellular assay
Sequence of Human TDO (hTDO)-transfected CHO-K1 cells (P48775 whole entry): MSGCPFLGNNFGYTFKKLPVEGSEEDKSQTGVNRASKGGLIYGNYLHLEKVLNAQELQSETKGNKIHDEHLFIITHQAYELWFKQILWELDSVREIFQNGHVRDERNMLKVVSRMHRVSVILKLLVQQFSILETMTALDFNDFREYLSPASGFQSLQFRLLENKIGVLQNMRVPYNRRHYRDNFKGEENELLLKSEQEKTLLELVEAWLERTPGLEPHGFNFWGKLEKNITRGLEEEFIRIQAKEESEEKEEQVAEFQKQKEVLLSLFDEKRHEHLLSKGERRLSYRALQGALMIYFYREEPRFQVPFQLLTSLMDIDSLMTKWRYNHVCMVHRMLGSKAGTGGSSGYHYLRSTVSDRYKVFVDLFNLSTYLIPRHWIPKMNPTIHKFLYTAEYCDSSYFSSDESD
Outline: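 Kynurenine output was read by LC/MS/MS after TCA precipitation and 15 min at 65° C. Before that, CHO-K1 cells stably carrying human TDO2 were incubated 2 h with compounds (typically 31 μM to 10 nM) and 80 μM L-tryptophan in HBSS. Decrease versus DMSO vehicle gave percent inhibition, then IC50.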

Sequence of IDO1 in HeLa cells (P14902 whole entry): as the sequence (P14902 whole entry) above

SMILES | IC50 (IDO1 in HeLa cells) | IC50 [1] | IC50 [2]
Nc1oc2c(-c3cccnc3)nccc2c1Nc1ccc(F)c(Cl)c1 [Compound 94, N^3-(3-chloro-4-fluorophenyl)-7-(pyridin-3-yl)furo[2,3-c]pyridine-2,3-diamine] | < 200 nM | < 200 nM | < 500 nM
Cc1nccc2c(Nc3cccc(C(F)(F)F)c3)c(N)oc12 [Compound 80, 7-Methyl-N^3-(3-(trifluoromethyl)phenyl)furo[2,3-c]pyridine-2,3-diamine] | < 200 nM | < 200 nM | > 2000 nM
COC(=O)c1ccc(-c2nccc3c(Nc4ccc(F)c(Cl)c4)c(N)oc23)cc1 [Compound 152, Methyl 4-(2-amino-3-((3-chloro-4-fluorophenyl)amino)furo[2,3-c]pyridin-7-yl)benzoate] | < 200 nM | < 200 nM | 500 to 2000 nM
Cc1cc(-c2nc(F)cc3c(Nc4ccc(F)c(Cl)c4)c(N)oc23)ccn1 [Compound 244, N^3-(3-Chloro-4-fluorophenyl)-5-fluoro-7-(2-methylpyridin-4-yl)furo[2,3-c]pyridine-2,3-diamine] | < 200 nM | < 200 nM | 500 to 2000 nM
Cc1ccc(Nc2c(N)oc3cnccc23)cc1Br [Compound 21, N^3-(3-Bromo-4-methylphenyl)furo[2,3-c]pyridine-2,3-diamine] | < 200 nM | 200 to 1000 nM | 500 to 2000 nM
Nc1oc2cnccc2c1Nc1ccc2c(c1)OCO2 [Compound 35, N^3-(Benzo[d][1,3]dioxol-5-yl)furo[2,3-c]pyridine-2,3-diamine] | < 200 nM | 200 to 1000 nM | 500 to 2000 nM
Nc1oc2cnccc2c1Nc1ccccc1 [Compound 3, N^3-Phenylfuro[2,3-c]pyridine-2,3-diamine] | < 200 nM | 200 to 1000 nM | < 500 nM
Nc1oc2c(-c3ccncc3)nccc2c1Nc1cccc(Cl)c1 [Compound 217, N^3-(3-Chlorophenyl)-7-(pyridin-4-yl)furo[2,3-c]pyridine-2,3-diamine] | < 200 nM | < 200 nM | < 500 nM
CCOc1cc2c(Nc3ccc(F)c(Cl)c3)c(N)oc2c(-c2ccccc2)n1 [Compound 105, N^3-(3-Chloro-4-fluorophenyl)-5-ethoxy-7-phenylfuro[2,3-c]pyridine-2,3-diamine] | > 1000 nM | 200 to 1000 nM | > 2000 nM
CCc1cccc(Nc2c(N)oc3cnccc23)c1 [Compound 19, N^3-(3-Ethylphenyl)furo[2,3-c]pyridine-2,3-diamine] | 200 to 1000 nM | 200 to 1000 nM | > 2000 nM
COc1cc2c(Nc3ccc(F)c(Cl)c3)c(N)oc2c(-c2ccc(C#N)cc2)n1 [Compound 173, 4-(2-Amino-3-((3-chloro-4-fluorophenyl)amino)-5-methoxyfuro[2,3-c]pyridin-7-yl)benzonitrile] | < 200 nM | < 200 nM | > 2000 nM
COc1cc2c(Nc3ccc(F)c(Cl)c3)c(N)oc2c(Br)n1 [Compound 172, 7-Bromo-N^3-(3-chloro-4-fluorophenyl)-5-methoxyfuro[2,3-c]pyridine-2,3-diamine] | < 200 nM | < 200 nM | > 2000 nM
Nc1oc2c(-c3cc(Cl)cc(Cl)c3)nccc2c1Nc1ccc(F)c(Cl)c1 [Compound 258, N^3-(3-Chloro-4-fluorophenyl)-7-(3,5-dichlorophenyl)furo[2,3-c]pyridine-2,3-diamine] | 200 to 1000 nM | < 200 nM | > 2000 nM
Nc1oc2cnccc2c1Nc1ccc(F)c(C(F)(F)F)c1 [Compound 60, N^3-(4-Fluoro-3-(trifluoromethyl)phenyl)furo[2,3-c]pyridine-2,3-diamine] | < 200 nM | < 200 nM | 500 to 2000 nM
Nc1sc2ccccc2c1Nc1ccc(F)c(F)c1 [Compound 211, N^3-(3,4-Difluorophenyl)benzo[b]thiophene-2,3-diamine] | < 200 nM | < 200 nM | < 500 nM
Nc1oc2c(-c3ccnc(C(=O)Nc4ccccn4)c3)nccc2c1Nc1ccc(F)c(Cl)c1 [Compound 273, 4-(2-Amino-3-((3-chloro-4-fluorophenyl)amino)furo[2,3-c]pyridin-7-yl)-N-(pyridin-2-yl)picolinamide] | < 200 nM | < 200 nM | > 2000 nM
Cc1cccc(Nc2c(N)sc3ccccc23)c1C [Compound 138, N^3-(2,3-Dimethylphenyl)-1-benzothiophene-2,3-diamine] | 200 to 1000 nM | > 1000 nM | 500 to 2000 nM
Nc1oc2cnccc2c1Nc1ccc(F)c(Cl)c1F [Compound 44, N^3-(3-Chloro-2,4-difluorophenyl)furo[2,3-c]pyridine-2,3-diamine] | < 200 nM | 200 to 1000 nM | 500 to 2000 nM
Nc1sc2ccccc2c1Nc1cccc(Br)c1 [Compound 230, N^3-(3-Bromophenyl)benzo[b]thiophene-2,3-diamine] | < 200 nM | < 200 nM | 500 to 2000 nM
Nc1oc2c(-c3ccnc(C(=O)N4CCCCC4)c3)nccc2c1Nc1ccc(F)c(Cl)c1 [Compound 271, (4-(2-Amino-3-((3-chloro-4-fluorophenyl)amino)furo[2,3-c]pyridin-7-yl)pyridin-2-yl)(piperidin-1-yl)methanone] | < 200 nM | < 200 nM | 500 to 2000 nM
CCCc1nccc2c(Nc3ccc(F)c(C(F)(F)F)c3)c(N)oc12 [Compound 79, N^3-(4-Fluoro-3-(trifluoromethyl)phenyl)-7-propylfuro[2,3-c]pyridine-2,3-diamine] | < 200 nM | < 200 nM | 500 to 2000 nM
N#Cc1ccc2c(Nc3cccc(C(F)(F)F)c3)c(N)oc2c1 [Compound 113, 2-Amino-3-((3-(trifluoromethyl)phenyl)amino)benzofuran-6-carbonitrile] | < 200 nM | < 200 nM | 500 to 2000 nM
Cc1cc(-c2nccc3c(Nc4ccc(F)cc4)c(N)oc23)ccn1 [Compound 208, N^3-(4-fluorophenyl)-7-(2-methylpyridin-4-yl)furo[2,3-c]pyridine-2,3-diamine] | < 200 nM | < 200 nM | < 500 nM
CC(F)(F)c1cc(Nc2c(N)oc3cnccc23)ccc1F [Compound 69, N^3-(3-(1,1-Difluoroethyl)-4-fluorophenyl)furo[2,3-c]pyridine-2,3-diamine] | < 200 nM | 200 to 1000 nM | > 2000 nM
Nc1oc2c(-c3ccc(F)cc3)nccc2c1Nc1ccc(F)c(Cl)c1 [Compound 147, N^3-(3-Chloro-4-fluorophenyl)-7-(4-fluorophenyl)furo[2,3-c]pyridine-2,3-diamine] | < 200 nM | < 200 nM | 500 to 2000 nM
Cc1nccc2c(Nc3ccc(F)c(Cl)c3)c(N)oc12 [Compound 66, N^3-(3-Chloro-4-fluoro-phenyl)-7-methyl-furo[2,3-c]pyridine-2,3-diamine] | < 200 nM | < 200 nM | < 500 nM
Cc1cc(-c2cccc3c(Nc4cccc(Cl)c4)c(N)sc23)ccn1 [Compound 248, N^3-(3-Chlorophenyl)-7-(2-methylpyridin-4-yl)benzo[b]thiophene-2,3-diamine] | < 200 nM | < 200 nM | 500 to 2000 nM
